{"source": "patent US20160251342A1", "about": "“ALDEHYDE DERIVATIVE OF SUBSTITUTED OXAZOLIDINONES” (WANBURY LTD., priority 2012, published 2016)", "key": {"[1]": {"assay": "Stability in buffer at various pH (LC-MS/MS)", "assay_type": "physicochemical", "settings": "for Analyte Peak Area (counts): 24 hr room temperature, replicates, Standard average 39849828", "protocol": "(§1) On completion of incubation period, the solution is centrifuged and supernatant is taken. To the supernatant, ice cold acetonitrile containing IS is added, vortexed and injected into LCMS/MS.\n(§2) API 4000, ESI Agilent 1100 column: Gemini Nx 100 mm×4.6 mm 5.μ; column temperature: 30° C.; eluent A: 0.1% formic acid in water, eluent B: acetonitrile; gradient: 0-2.5 min 95% A, 5% B; 2.5-2.6 min 5% A, 95% B; 2.6-4.2 min 95% A, 5% B; flow rate: 0.8 ml/min; ESI. Q1:464.098, Q3:144.255\nPrepared 0.1 mol of citric acid and 0.2 mol of di sodium hydrogen phosphate in water. Buffer pH 2.2, 4 and 7.8 are prepared using citric acid and disodium hydrogen phosphate by adjusting the pH with 0.1N HCl or 1N NaOHpH 7.4:8.89 g disodium hydrogen phosphate (Solution A) add to 1 litre of water, 1.5601 g sodium di-hydrogen phosphate (solution B) are made up to 1 liter with water; […] are mixed."}, "[2]": {"assay": "Stability in simulating intestinal fluid (SIF)", "assay_type": "physicochemical", "settings": "SIF pH 7.4, up to 120 min", "protocol": "as §1, §2\nSIF/SGF: 2.38 g of SIF original powder (biorelavant media) is dissolved in 1 L of milliQ water. The pH of the solution is adjusted for SIF (7.4) and SGF (2.2) with 0.1N HCl. The ratios of the peak areas (F) at the respective time points in relation to the peak areas at the starting time are calculated. […] The peak area (F) is directly correlated to the amount of test compound which is quantified by the LC MS method.\nIn simulating intestinal and gastric fluid, the area of the formula B compared with zero minute area to 120 min."}, "[3]": {"assay": "In vitro stability in human plasma (LC-MS)", "assay_type": "in vitro ADME", "protocol": "The final concentration of the test compound in the assay is 5 micromolar. […] C. The 100 microlitres of aliquot at time point was removed and diluted with ice cold acetonitrile containing IS (200 µL) to stop the reactions. Samples are centrifuged at 10,000 RPM for 5 minutes to precipitate proteins. Supernatants are transferred to micro centrifuge tubes and stored at −20° C. for analysis of LC/MS/MS. The percent parent remaining of the test substance is calculated as ratio of peak area at each time point to peak area ratio at zero min, multiplied by 100.\nas §2"}, "[4]": {"assay": "Permeability in caco2 system", "assay_type": "in vitro ADME", "settings": "human, Caco-2; caco2"}, "caco2 system": {"system": "caco2 system", "assay": "Permeability in caco2 system", "assay_type": "in vitro ADME", "settings": "caco2, efflux >2"}, "plasma protein [5]": {"system": "plasma protein", "assay": "Plasma protein binding (dialysis), rat", "assay_type": "in vitro ADME", "protocol": "(§3) A compound solution (1 mM in DMSO) (5 μL), according to the invention is added to the respective plasma matrices of rat or human or mouse (1 ml).\n(§4) Add 150 μl of phosphate buffer to receiving side of the dialysis well. […] Precipitate with Acetonitrile and dilute samples prior to analysis in 1.5 ml polypropylene tubes. Remove 50 μl from the sample side of dialysis well and add 50 μl of phosphate buffer+300 μl of acetonitrile containing IS. Remove 50 μl from the buffer side of the dialysis well and add 50 μl of respective matrix plasma+300 μl of ACN. Then vortexed and centrifuged for 5 min, and supernatant is taken and injected into LCMS.\n(§5) Different test concentration ranging from 0.1 μM to 20 μM are made in methanol:water (90:10). Test solutions are added to the premixed matrix containing plasma:phosphate buffer (50:50). Precipitate with 300 μl of ice cold acetonitrile containing IS, vortexes and centrifuged. Supernatant is taken and injected into LCMS.\n(§6) Percentage of plasma protein binding was obtained via Equation (2): % Fraction unbound=(concentration on the buffer side/concentration on the sample side)*100"}, "plasma protein [6]": {"system": "plasma protein", "assay": "Plasma protein binding (dialysis), mouse", "assay_type": "in vitro ADME", "protocol": "as §3, §4, §5, §6"}, "[7]": {"assay": "Intravenous and oral excretion profile in Wistar rats", "assay_type": "in vivo", "settings": "after i.v. administration, first measurement point", "protocol": "On the day before administration of the substance, a catheter for obtaining blood is implanted in the jugular vein of the experimental animals (male Wistar rats, body weight 200-250 g) under Isoflurane. anesthesia.\nUrine and faeces are taken collected from metabolic cages over the course of 144 h after administration of the substance. The administration volume is 10 ml/kg for oral and 1 ml/kg for IV in male Wistar rats. Intravenous administration is via a formulation of 2% N—N Dimethyl acetamide/ethanol 10%/PEG400(30%)/water for IV injection (58%) and via Tween80/PEG400/sterile water in the case of oral administration. Urine and faeces collection is 0-4, 4-8, 8-24, 24-48, 48-72, 72-96, 96-120, 120-144 in the case of IV and for oral administration.\nUrine and faeces was processed and IS containing Acetonitrile is added to a defined urine/faeces and precipitated. After centrifugation, compound formula (B) and, where appropriate, known cleavage products of the compound formula (B) in the supernatant are determined quantitatively using a suitable LC/MS-MS method.\nThe measured urine and faeces concentrations are used to calculate parameters of the test substance and of the active ingredient compound (A) liberated there from, such as AUC and Cmax.\nAcetonitrile containing IS is added to the study samples, calibration samples and QCs, and the protein is precipitated using acetonitrile. […]"}}, "note": "Where “and” joins values, the source holds several entries; their conditions need not be identical. Equal values may be shown once.", "data": [{"smiles": "O=CN(C[C@H]1CN(c2ccc(N3CCOCC3=O)cc2)C(=O)O1)C(=O)c1ccc(Cl)s1", "note": "[compound formula (B), 5-chloro-N-formyl-N-({(5S)-2-oxo-3-[4-(3-oxomorpholin-4-yl)phenyl]-1,3-oxazolidin-5-yl}methyl)thiophene-2-carboxamide]", "values": [{"measurement": "Analyte Peak Area (counts)", "setting": "[1]; pH 2.1 buffer", "value": "20975674 counts and 35654402 counts"}, {"measurement": "Analyte Peak Area (counts)", "setting": "[1]; pH 4 buffer", "value": "42841292 counts and 26917087 counts"}, {"measurement": "Analyte Peak Area (counts)", "setting": "[1]; pH 7.8 buffer", "value": "35312 counts and 42503 counts"}, {"measurement": "Stability in varying pH buffer conditions", "setting": "[1]; varying pH buffers, rivaroxaban formation observed", "value": "degraded"}, {"measurement": "Stability at simulating intestinal conditions", "setting": "[2]", "value": "stable"}, {"measurement": "Amount of test product detected (conversion to rivaroxaban from zero min)", "setting": "[3]", "value": "Neglible"}, {"measurement": "Papp A→B", "setting": "[4]", "value": 17.4, "unit": "×10⁻⁶ cm/s"}, {"measurement": "Interpretation: Pgp substrate", "setting": "caco2 system", "value": "observed to be a Pgp substrate."}, {"measurement": "Observation: amount of test product", "setting": "plasma protein [5]", "value": "Not quantificable amount of test"}, {"measurement": "Observation: formed Rivaroxaban bound to plasma protein", "setting": "plasma protein [5]; phrase continues 'High bound' in next line", "value": "Rivaroxaban found to be moderate-"}, {"measurement": "Observation: amount of test product", "setting": "plasma protein [6]", "value": "Not quantificable amount of test"}, {"measurement": "Observation: formed Rivaroxaban bound to plasma protein", "setting": "plasma protein [6]", "value": "moderate-High bound to plasma"}, {"measurement": "Detectability of unchanged test substance in urine and faeces", "setting": "[7]", "value": "no longer detectable"}]}]}
